Test results published in patent US6610523B1, “Cytokine-, stress-, and oncoprotein-activated human protein kinase kinases” (University of Massachusetts, priority 1995, dated 2003).
Substitutions are numbered along the chain they refer to.

B1: GAL4-ATF2 (Ala^69.71): GAL4-ATF2 fusion protein with Thr69 and Thr71 replaced with Ala (protein)
chain: MKLLSSIEQACDICRLKKLKCSKEKPKCAKCLKNNWECRYSPKTKRSPLTRAHLTEVESRLERLEQLFLLIFPREDLDMILKMDSLQDIKALLTGLFVQDNVNKDAVTDRLASVETDMPLTLRQHRISATSSSEESSNKGQRQLTVSMKFKLHVNSARQYKDLWNMSDDKPFLCTAPGCGQRFTNEDHLAVHKHKHEMTLKFGPARNDSVIVADQAPAPTRFLKNCEEVGLFNELASPFENEFKKASEDDIKKMPLDLSPLATPIIRSKIEEPSVVETTHQDSPLPHPESTTSDEKEVPLAQTAQPTSAIVRPASLQVPNVLLTSSDSSVIIQQAVPSPTSSTVITQAPSSNRPIVPVPGPFPLLLHLPNGQTMPVAIPASITSSNVHVPAAVPLVRPVTMVPSVPGIPGPSSPQPVQSEAKMRLKAALTQQHPPVTNGDTVKGHGSGLVRTQSEESRPQSLQQPATSTTETPASPAHTTPQTQSTSGRRRRAANEDPDEKRRKFLERNRAAASRCRQKRKVWVQSLEKKAEDLSSLNGQLQSEVTLLRNEVAQLKQLLLAHKDCPVTAMQKKSGYHTADKDDSSEDISVPSSPHTEAIQHSSVSTSNGVSSTSKAEAVATSVLTQMADQSTEPALSQIVMAPSSQSQPSGS
B2: GAL4-ATF2 (wild type): fusion protein consisting of ATF2 and the GAL4 DNA binding domain, wild-type Thr69,71 (protein)
chain: B1 chain with A216T, A218T

Assays:
Type in all cases: cell-based
p38 MAP kinase [1] = test: Immunecomplex protein kinase assay of p38 MAP kinase from treated HeLa cells, ATF2 as substrate; settings: for p38 activation (in words): PMA 10 nM, EGF 10 nM, sorbitol 300 mM, interleukin-1 10 ng/ml, TNFα 10 ng/ml; for Relative Protein Kinase Activity p38: control = 1.0
Description: (§1) The effect of phorbol ester, EGF, UV radiation, osmotic stress, IL-1, tumor necrosis factor (TNF), and LPS on p38 MAP kinase and JNK1 activity were measured in immunecomplex protein kinase assays using ATP [γ-^32P] and ATF2 as substrates. TNFα and IL-1α were from Genzyme Corp. Lipolysaccharide (LPS) was isolated from lyophilized Salmonella minesota Re595 bacteria as described (Mathison et a. (1988) J. Clin. Invest. 81:1925). Phorbol myristate acetate was from Sigma. EGF was purified from mouse salivary glands (Davis (1988) J. Biol. Chem. 263:9462). Kinase assays were performed using immunoprecipitates of p38 and JNK. The immunocomplexes were washed twice with kinase buffer (described above), and the assays initiated by the addition of 1 μg of ATF2 and 50 μM [γ-^32P]ATP (10 Ci/mmol) in a final volume of 25 μl. The reactions were terminated after 30 minutes at 30° C. by addition of Laemmli sample buffer. The phosphorylation of ATF2 was examined after SDS-PAGE by autoradiography, and the rate of ATF2 phosphorylation quantitated by PhosphorImager analysis. […]

JNK1 [2] = test: Immunecomplex protein kinase assay of JNK1 from treated HeLa cells, ATF2 as substrate; settings: for JNK1 activation (in words): PMA 10 nM, EGF 10 nM, sorbitol 300 mM, interleukin-1 10 ng/ml, TNFα 10 ng/ml; for Relative Protein Kinase Activity JNK: control = 1.0
Description: as §1

JNK1 [3] = test: JNK1 immunecomplex kinase assay (c-Jun substrate) in CHO cells expressing epitope-tagged JNK1 after osmotic shock
Description: CHO cells were co-transfected with the plasmid pCMV-Flag-Jnk1 and pRSV-Neo (Dérijard et al. (1994) supra) . A stable cell line expressing epitope-tagged Jnk1 (Flag; Immunex Corp.) was isolated by selection with Geneticin (Gibco-BRL). The cells were incubated with 0, 100, 150, 300, 600, or 1000 mM sorbitol for 1 hour at 37° C. The cells were collected in lysis buffer (20 mM Tris, pH 7.4, 1% TRITON® X-100, 2 mM EDTA, 137 mM NaCl, 25 mM β-glycerophosphate, 1 mM orthovanadate, 2 mM pyrophosphate, 10% glycerol, 1 mM phenylmethylsulfonyl fluoride, 10 μg/ml leupeptin) and a soluble extract was obtained by centrifugation at 100,000 g for 30 minutes at […]. The epitope-tagged JNK1 was isolated by immunoprecipitation with the monoclonal antibody M2 (Immunex Corp.). The immunoprecipitates were washed extensively with lysis buffer. Immunecomplex kinase assays were done in 25 μl of 25 mM Hepes, pH 7.4, 25 mM MgCl2, 25 mM β-glycerophosphate, 2 mM dithiothreitol, 100 AM orthovanadate, and 50 AM ATP [γ-^32P] (10 Ci/mmole) with 2.5 μg of bacterially expressed c-Jun (residues 1-79) fused to glutathione-S-transferase (GST) as a substrate. The phosphorylation of c-Jun was examined after SDS-PAGE by autoradiography and PhosphorImager (Molecular Dynamics Inc.) analysis.
The time course of JNK1 protein kinase activation was measured in cells incubated in medium supplemented with 300 mM sorbitol as described above. Increased JNK1 activity was observed within 5 minutes of exposure to sorbitol, with maximum activity occurring after 15-30 minutes.

p38 MAP kinase [4] = test: p38 MAP kinase immunecomplex assay (ATF2 substrate) in transfected COS-1 cells; settings: COS-1 cells transfected with epitope-tagged p38; 10 nM EGF
Description: COS-1 cells were transfected with epitope-tagged p38 MAP kinase, together with an empty expression vector or an expression vector encoding MEK1, MKK3, or MKK4α. Some of the cultures were exposed to UV radiation (40 J/m^2) or treated with 10 nM EGF. p38 MAP kinase was isolated by immunoprecipitation with M2 monoclonal antibody, and the protein kinase activity was measured in the immunecomplex with [γ-^32P]ATP and ATF2 as substrates. The product of the phosphorylation reaction was visualized after SDS-PAGE by autoradiography. […] MKK3 and MKK4 phosphorylation of ATF2 was similar to that seen with p38 MAP kinase isolated from UV-irradiated cells.

ATF2 = test: Electrophoretic mobility of ATF2 by immuno-blot in JNK1-transfected CHO cells; settings: IL-1α 10 ng/ml or fetal bovine serum 20%, 30 minutes at 37° C.
Description: CHO cells were maintained in Ham's F12 medium supplemented with 5% […] (Gibco-BRL). Cells were labeled and transfected with JNK1 as described above. CHO cells were treated with UV-C (40 J/m^2), IL-1α (10 ng/ml) (Genzyme), or fetal bovine serum (20%) (Gibco-BRL). The cells were incubated for 30 minutes at 37° C. prior to harvesting. The electrophoretic mobility of ATF2 after SDS-PAGE was examined by protein immuno-blot analysis.

JNK1 [5] = test: Immunecomplex protein kinase assay of JNK1 from CHO cells that express human CD14, ATF2 as substrate
Description: (§2) The effect of phorbol ester, EGF, UV radiation, osmotic stress, IL-1, tumor necrosis factor (TNF), and LPS on p38 MAP kinase and JNK1 activity were measured in immunecomplex protein kinase assays using ATP [γ-^32P] and ATF2 as substrates. TNFα and IL-1α were from Genzyme Corp. Lipolysaccharide (LPS) was isolated from lyophilized Salmonella minesota Re595 bacteria as described (Mathison et a. (1988) J. Clin. Invest. 81:1925). Phorbol myristate acetate was from Sigma. EGF was purified from mouse salivary glands (Davis (1988) J. Biol. Chem. 263:9462). Kinase assays were performed using immunoprecipitates of p38 and JNK. The immunocomplexes were washed twice with kinase buffer (described above), and the assays initiated by the addition of 1 μg of ATF2 and 50 μM [γ-^32P]ATP (10 Ci/mmol) in a final volume of 25 μl. The reactions were terminated after 30 minutes at 30° C. by addition of Laemmli sample buffer. The phosphorylation of ATF2 was examined after SDS-PAGE by autoradiography, and the rate of ATF2 phosphorylation quantitated by PhosphorImager analysis.
(§3) The effect of LPS on the activity of p38 was examined using CHO cells that express human CD14.

p38 MAP kinase [6] = test: Immunecomplex protein kinase assay of p38 MAP kinase from CHO cells that express human CD14, ATF2 as substrate
Description: as §2, §3

[7] = tested on: reporter plasmid pG5E1bLuc (GAL4 sites, firefly luciferase gene); test: GAL4-ATF2 fusion protein co-transfection assay with luciferase reporter plasmid pG5E1bLuc in CHO cells; settings: luciferase and β-galactosidase mean activity ratio of three experiments
Description: A fusion protein consisting of ATF2 and the GAL4 DNA binding domain was expressed in CHO cells as described above. The activity of the GAL4-ATF2 fusion protein was measured in co-transfection assays with the reporter plasmid pG5E1bLuc (Seth et al. (1992) J. Biol. Chem. 267:24796, hereby specifically incorporated by reference). The reporter plasmid contains five GAL4 sites cloned upstream of a minimal promoter element and the firefly luciferase gene. Transfection efficiency was monitored with a control plasmid that expresses β-galactosidase (pCH110; Pharmacia-LKB Biotechnology). The luciferase and β-galactosidase activity detected in cell extracts was measured as the mean activity ratio of three experiments (Gupta et al. (1993) Proc. Natl. Acad. Sci. USA 90:3216, hereby specifically incorporated by reference).

[8] = CHO cells that express human CD14, 10 ng/ml, control = 1.0

Molecule | p38 activation (in words) (p38 MAP kinase [1]) | Relative Protein Kinase Activity p38 (p38 MAP kinase [1]) | JNK1 activation (in words) (JNK1 [2]) | Relative Protein Kinase Activity JNK (JNK1 [2]) | other results
CCCCCCCCCCCCCC(=O)O[C@@H]1[C@@H](C)[C@@]2(O)[C@@H](C=C(CO)C[C@]3(O)C(=O)C(C)=C[C@@H]23)[C@@H]2C(C)(C)[C@]12OC(C)=O [Phorbol Ester, Phorbol myristate acetate] | very weakly activated | 2.9 | very weakly activated | 2.3 | –
OC[C@@H](O)[C@@H](O)[C@H](O)[C@@H](O)CO [sorbitol] | strongly activated | 4.2 | strongly activated | 18.1 | time of maximum JNK1 activity (JNK1 [3]; 300 mM sorbitol): 15 to 30 min; time to increased JNK1 activity (JNK1 [3]; 300 mM sorbitol): ≤ 5 min; JNK1 activation (in words) (JNK1 [3]; 100, 150, 300, 600 or 1000 mM sorbitol, 1 hour at 37° C.): JNK1 activation was observed at all concentrations
Epidermal Growth Factor: EGF purified from mouse salivary glands | only weakly activated | 2.1 | only weakly activated | 1.9 | ATF2 phosphorylation by p38 MAP kinase isolated from treated cells (in words) (p38 MAP kinase [4]): not phosphorylated
Interleukin-1: IL-1α from Genzyme Corp., pro-inflammatory cytokine | strongly activated | 6.2 | strongly activated | 8.9 | shift in ATF2 electrophoretic mobility (in words) (ATF2): A shift in ATF2 electrophoretic mobility was observed
Lipopolysaccharide | – | – | – | – | Relative Protein Kinase Activity JNK (JNK1 [5]; [8]): 3.6; JNK1 activation (in words) (JNK1 [5]; CHO cells, 10 ng/ml LPS): only slightly activated; Relative Protein Kinase Activity p38 (p38 MAP kinase [6]; [8]): 3.7; p38 activation (in words) (p38 MAP kinase [6]; CHO cells, 10 ng/ml LPS): only slightly activated
Tumor Necrosis Factor | strongly activated | 10.3 | strongly activated | 19.3 | –
B1 | – | – | – | – | LUCIFERASE ACTIVITY [7]: 29,000 Light Units/OD
B2 | – | – | – | – | LUCIFERASE ACTIVITY [7]: 320,000 Light Units/OD
